This passage reports KSV, Kq and IC50 results from ChEMBL document CHEMBL5356957, “Design, synthesis, biological evaluation and molecular docking of alkoxyaurones as potent pancreatic lipase inhibitors” (Bioorg Med Chem Lett, 2024).

For experiment [1], the target named is T1, Pancreatic triacylglycerol lipase (Homo sapiens) (UniProt P16233).
T1 sequence (whole entry): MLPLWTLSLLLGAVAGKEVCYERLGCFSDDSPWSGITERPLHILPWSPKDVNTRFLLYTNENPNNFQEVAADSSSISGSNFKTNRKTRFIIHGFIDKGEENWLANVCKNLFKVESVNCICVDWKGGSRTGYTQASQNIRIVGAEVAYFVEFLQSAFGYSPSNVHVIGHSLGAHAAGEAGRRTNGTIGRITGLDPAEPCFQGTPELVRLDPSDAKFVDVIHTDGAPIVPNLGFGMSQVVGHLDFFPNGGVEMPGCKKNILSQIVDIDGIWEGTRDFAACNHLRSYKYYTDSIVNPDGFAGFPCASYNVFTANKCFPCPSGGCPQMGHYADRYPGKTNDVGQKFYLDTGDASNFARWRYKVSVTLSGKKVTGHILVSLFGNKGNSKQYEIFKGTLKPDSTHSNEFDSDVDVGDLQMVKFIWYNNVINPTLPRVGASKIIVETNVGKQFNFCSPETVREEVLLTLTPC
Description: Binding affinity to pancreatic lipase (unknown origin) assessed as Stem-Volmer quenching constant by fluorescence quenching based spectrophotometer analysis

Experiment [2] addresses T1, Pancreatic triacylglycerol lipase (Homo sapiens). The source holds these as a separate data set.
Description: Binding affinity to pancreatic lipase (unknown origin) assessed as quenching constant by fluorescence quenching based spectrophotometer analysis
For experiment [3], the target named is T2, Pancreatic triacylglycerol lipase (Homo sapiens, UniProt P16233).
T2 sequence (P16233 whole entry): T1 sequence (whole entry)
Nature of the experiment: Inhibition of pancreatic lipase (unknown origin) by spectrophotometeric analysis.

In the case of `O=c1c(O)c(-c2ccc(O)c(O)c2)oc2cc(O)cc(O)c12`, the KSV in experiment [1] is 13.3 10^4L/mol. Also, the Kq in experiment [2] is 8.35 10^13L/mol/s.
Take `O=C1/C(=C/c2ccccc2)Oc2cc(O)cc(O)c21`: in experiment [1], the KSV is 7.16 10^4L/mol. Besides, in experiment [3], the half-inhibitory concentration (IC50) was determined as 58.8 µM. Besides, the Kq in experiment [2] was 4.5 10^13L/mol/s.
